Results taken from PubChem BioAssay (NCI).
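1) Cells in 96-well plates. 2) Compound, 48 h, 5 concentrations. 3) Linear interpolation between surrounding doses. 4) Unreached endpoint = highest concentration. At the TGI there is no net growth.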

What was measured:
Experiment in all cases: DTP human tumour cell line panel, 48 h
ACHN renal = test system: ACHN renal
CCRF-CEM leukemia = test system: CCRF-CEM leukemia
EKVX NSCLC = test system: EKVX NSCLC
HCT-116 colon = test system: HCT-116 colon
MALME-3M melanoma = test system: MALME-3M melanoma
MCF7 breast = test system: MCF7 breast
NCI-H460 lung = test system: NCI-H460 lung
NCI-H522 lung = test system: NCI-H522 lung
OVCAR-4 ovarian = test system: OVCAR-4 ovarian
OVCAR-8 ovarian = test system: OVCAR-8 ovarian
RPMI-8226 leukemia = test system: RPMI-8226 leukemia
SF-295 CNS = test system: SF-295 CNS
SK-MEL-28 melanoma = test system: SK-MEL-28 melanoma
SR leukemia = test system: SR leukemia
SW-620 colon = test system: SW-620 colon
UACC-257 melanoma = test system: UACC-257 melanoma
M14 melanoma = test system: M14 melanoma
MDA-MB-231 breast = test system: MDA-MB-231 breast
NCI-H226 lung = test system: NCI-H226 lung

SMILES	TGI (ACHN renal)	TGI (CCRF-CEM leukemia)	TGI (EKVX NSCLC)	TGI (HCT-116 colon)	TGI (MALME-3M melanoma)	TGI (MCF7 breast)	TGI (NCI-H460 lung)	TGI (NCI-H522 lung)	TGI (OVCAR-4 ovarian)	TGI (OVCAR-8 ovarian)	TGI (RPMI-8226 leukemia)	TGI (SF-295 CNS)	TGI (SK-MEL-28 melanoma)	TGI (SR leukemia)	TGI (SW-620 colon)	TGI (UACC-257 melanoma)	TGI (M14 melanoma)	TGI (MDA-MB-231 breast)	TGI (NCI-H226 lung)
CCCCCCCCCCCC(=O)Oc1c(Cl)cc(Cl)c(OC(=O)C(=O)Oc2c(Cl)cc(Cl)c(OC(=O)CCCCCCCCCCC)c2Cl)c1Cl	> 100 µM	> 100 µM	> 100 µM	> 100 µM	> 100 µM	> 100 µM	> 100 µM	> 100 µM	> 100 µM	> 100 µM	> 100 µM	> 100 µM	> 100 µM	> 100 µM	> 100 µM	> 100 µM			
COc1cccc(-c2c(C#N)c(N)nc3c2CCS(=O)(=O)c2ccc(C)cc2-3)c1	> 100 µM	> 100 µM		> 100 µM	> 100 µM		> 100 µM	> 100 µM	> 100 µM	> 100 µM	> 100 µM		> 100 µM	> 100 µM	> 100 µM	> 100 µM	> 100 µM	> 100 µM	> 100 µM
O=[N+]([O-])c1ccc(-c2nnc(C34CC5CC(CC(C5)C3)C4)o2)cc1	> 100 µM	> 100 µM	> 100 µM	> 100 µM	> 100 µM		> 100 µM	> 100 µM	> 100 µM		> 100 µM	> 100 µM	> 100 µM	> 100 µM	> 100 µM		> 100 µM	> 100 µM	> 100 µM
COC(=O)C(CC12CC3CC(CC(C3)C1)C2)NC(=O)C(N)CC(=O)O (stereo not given)	> 100 µM	> 100 µM	> 100 µM	> 100 µM			> 100 µM	> 100 µM	> 100 µM	> 100 µM	> 100 µM	> 100 µM	> 100 µM	> 100 µM	> 100 µM	> 100 µM			
O=[N+]([O-])C(C(Cl)=C(Cl)Cl)=C(N(Cc1ccccc1)Cc1ccccc1)N(Cc1ccccc1)Cc1ccccc1	> 100 µM	60.6 µM	> 100 µM	> 100 µM	> 100 µM	> 100 µM	> 100 µM	> 100 µM		> 100 µM		> 100 µM	> 100 µM		> 100 µM	> 100 µM	> 100 µM	> 100 µM	> 100 µM
O=C(c1cccc2ccccc12)C1(Br)S(=O)(=O)OCCOS1(=O)=O	> 100 µM		> 100 µM	> 100 µM	> 100 µM	> 100 µM	> 100 µM		> 100 µM	> 100 µM	> 100 µM	> 100 µM	> 100 µM	> 100 µM		> 100 µM	> 100 µM	> 100 µM	
CC(NNC(=O)c1ccncc1)c1ccc(F)cc1 (stereo not given)	> 100 µM	> 100 µM	> 100 µM	> 100 µM	> 100 µM	> 100 µM	> 100 µM	> 100 µM	> 100 µM	> 100 µM		> 100 µM	> 100 µM		> 100 µM	> 100 µM	> 100 µM	> 100 µM	> 100 µM
CCOC(=O)c1c(N)sc2c1C(C(=O)OCC)CC2 (stereo not given)	> 100 µM		> 100 µM	> 100 µM	> 100 µM	> 100 µM	> 100 µM			> 100 µM	> 100 µM		> 100 µM	> 100 µM	> 100 µM	> 100 µM	> 100 µM	> 100 µM	> 100 µM
COc1ccc(OCc2nc3cc(C(F)(F)F)ccc3nc2-c2ccccc2)cc1	> 100 µM	> 100 µM	> 100 µM	> 100 µM	> 100 µM	> 100 µM	> 100 µM		> 100 µM	> 100 µM	> 100 µM	> 100 µM	> 100 µM		> 100 µM	> 100 µM	> 100 µM	> 100 µM	> 100 µM
N#CC12C(=O)N3C(=NC(c4ccccc4)NC3c3ccccc3)C1(C#N)C(c1ccccc1)NC1=C2CCC1 (stereo not given)	> 100 µM	> 100 µM	> 100 µM	> 100 µM	> 100 µM	> 100 µM	> 100 µM	> 100 µM	> 100 µM	> 100 µM	> 100 µM	> 100 µM	> 100 µM		> 100 µM	> 100 µM	> 100 µM	> 100 µM	> 100 µM
CCC1C(C#N)=C(N)OC2=C1C(=O)CC(C)(C)C2 (stereo not given)	> 100 µM	> 100 µM	> 100 µM	> 100 µM	> 100 µM	> 100 µM	> 100 µM	> 100 µM	> 100 µM	> 100 µM	> 100 µM	> 100 µM	> 100 µM		> 100 µM	> 100 µM	> 100 µM	> 100 µM	
CC(=O)OCOC(=O)CN(CC(=O)OCOC(C)=O)Cc1cc2c(cc1OC(C)=O)Oc1cc(OC(C)=O)c(CN(CC(=O)OCOC(C)=O)CC(=O)OCOC(C)=O)cc1C21OC(=O)c2ccccc21	4.02 µM	0.374 µM	10.6 µM	1.5 µM	1.88 µM	7.73 µM	1.45 µM	1.17 µM	3.42 µM	3.23 µM		11.1 µM	1.76 µM		3.64 µM	1.27 µM	3.68 µM	3.64 µM	2.86 µM
O=S(=O)(O)c1ccc(O)c2ncc(Cl)cc12	> 100 µM	> 100 µM	> 100 µM	> 100 µM		> 100 µM	> 100 µM		> 100 µM	> 100 µM	> 100 µM	> 100 µM	> 100 µM	> 100 µM	> 100 µM	> 100 µM	> 100 µM	> 100 µM	> 100 µM
COc1cccc(N=Cc2cc3cc(Br)ccc3nc2Cl)c1		48.8 µM	> 50 µM	> 50 µM	> 50 µM		> 50 µM	> 50 µM	2.63 µM	> 50 µM	41.6 µM	> 50 µM	> 50 µM	20.8 µM	> 50 µM	> 50 µM	> 50 µM		25.7 µM
CCOC(=O)C1(C(=O)OCC)Nc2cccnc2N(C)N1		44.6 µM		73.9 µM	> 100 µM	34.8 µM	> 100 µM		34.3 µM	40 µM	40.8 µM	> 100 µM	93.8 µM	> 100 µM	69 µM	32.3 µM	39.1 µM	40.4 µM	35.3 µM
COc1ccc(/C=C2\C(=O)N(C3OC(COC(C)=O)C(OC(C)=O)C(OC(C)=O)C3OC(C)=O)c3ccccc3N=C2N)cc1 (stereo not given)	> 100 µM	> 100 µM	> 100 µM	49.7 µM	84.5 µM	> 100 µM	75.8 µM		> 100 µM	45.6 µM	37.5 µM	72.1 µM	72.2 µM	53.6 µM	> 100 µM	72.5 µM	71.8 µM	> 100 µM	
CC(C)(Br)C(Br)CCC(C)(Br)C(Br)CO (stereo not given)	> 10 µM	> 10 µM	> 10 µM	> 10 µM	> 10 µM	> 10 µM		> 10 µM	> 10 µM	> 10 µM	> 10 µM	> 10 µM	> 10 µM		> 10 µM	> 10 µM	> 10 µM	> 10 µM	> 10 µM
C[n+]1c2ccccc2c(C(=O)Nc2ccc(S(=O)(=O)Nc3ccnn3-c3ccccc3)cc2)c2ccccc21	> 100 µM		> 100 µM	> 100 µM	> 100 µM	> 100 µM	> 100 µM		> 100 µM	> 100 µM	> 100 µM	> 100 µM	> 100 µM	> 100 µM	> 100 µM	> 100 µM	> 100 µM	> 100 µM	> 100 µM
CC12CCC(CC1=O)C2(C)CCC(N)=O (stereo not given)	> 100 µM	> 100 µM	> 100 µM	> 100 µM	> 100 µM	> 100 µM		> 100 µM	> 100 µM	> 100 µM	> 100 µM	> 100 µM	> 100 µM		> 100 µM	> 100 µM	> 100 µM	> 100 µM	> 100 µM
COc1ccc2nc(-n3c(/C=C/c4ccccc4O)nc4ccccc4c3=O)sc2c1	> 100 µM	> 100 µM	39.7 µM	65.3 µM	> 100 µM	> 100 µM	> 100 µM	> 100 µM	> 100 µM	> 100 µM	80.8 µM	> 100 µM	> 100 µM		> 100 µM	> 100 µM	> 100 µM	> 100 µM	> 100 µM
CCOC(=O)c1c(N2CCCC2)nsc1Nc1ccc(F)cc1	> 100 µM	73.7 µM	> 100 µM	> 100 µM	57.5 µM		> 100 µM	> 100 µM	> 100 µM	> 100 µM	> 100 µM	> 100 µM	> 100 µM	> 100 µM	> 100 µM	> 100 µM	> 100 µM	> 100 µM	> 100 µM
Cc1csc(=S)n1OC(=O)NC1CCCCC1	> 100 µM	> 28.2 µM	> 100 µM	96.8 µM	> 100 µM		> 100 µM	> 80.9 µM	> 32.5 µM	> 100 µM	> 71.8 µM	> 100 µM	> 69.7 µM	47.3 µM	> 100 µM	> 100 µM	> 100 µM		> 100 µM
[N-]=[N+]=Nc1c(C=O)c(=O)n2c3c(cccc13)CCC2	11.5 µM	6.44 µM	50.5 µM	10.9 µM	4.26 µM	10.6 µM	47.2 µM		8.49 µM	17.8 µM	> 22.3 µM	> 76.6 µM	27.2 µM		2.87 µM	10 µM	3.9 µM	32.1 µM	43.7 µM
CCOC(=O)C(=[N+]=[N-])C(=O)C1(C(=O)OCC)CCN(C(=O)c2ccccc2)C1=O (stereo not given)	> 100 µM	> 100 µM	> 100 µM	> 100 µM	> 100 µM	> 100 µM	> 100 µM	> 100 µM	> 100 µM	> 100 µM		> 100 µM				> 100 µM	> 100 µM	> 100 µM	> 100 µM
NC1CC(=O)c2sc(I)cc21 (stereo not given)	> 100 µM	> 100 µM	> 100 µM	> 100 µM	> 100 µM	> 100 µM	> 100 µM			> 100 µM	> 100 µM		> 100 µM	> 100 µM	> 100 µM	> 100 µM	> 100 µM	> 100 µM	
CCOP(=O)(OCC)C1CC(O)C(=O)N1 (stereo not given)	> 100 µM	> 100 µM	> 100 µM	> 100 µM	> 100 µM	> 100 µM			> 100 µM	> 100 µM	> 100 µM	> 100 µM	> 100 µM	> 100 µM	> 100 µM	> 100 µM	> 100 µM	> 100 µM	> 100 µM
CCN(CC)CCCNc1nc(=O)[nH]c(C)c1C(=O)Nc1cccc2cc3ccccc3cc12	> 100 µM	> 100 µM	> 100 µM	> 100 µM	> 100 µM	> 100 µM		> 100 µM	> 100 µM	> 100 µM	> 100 µM	> 100 µM	> 100 µM		> 100 µM	> 100 µM	> 100 µM	> 100 µM	> 100 µM
